These results are taken from patent US20040186072A1, “Use of esters of long-chain fatty acids for treatment of autoimmune diseases” (priority 2001, published 2004).

For data set [1] the following is noted: stated as known; cited from earlier work.
In data set [2] the test system is EAE induced by PLP 139-151 peptide in SJL/J mice. Nature of the data set: EAE induced by PLP 139-151/CFA in SJL/J mice, clinical score 0-5. The note with it: for mean clinical score on day 22: Example 5: 100 μl s.c. daily from day 11, PBS control 2.5±0.84. The format is in vivo.
For data set [3], the system named is EAE induced with mouse spinal cord homogenate (MSCH). The data set is described as follows: EAE induced by mouse spinal cord homogenate (MSCH)/CFA in SJL/J mice. Format: in vivo. The note with it: for clinical severity: 100 μl s.c. daily from day 4, all control mice had died by day 15, FIG. 6.
Where [4] appears, read: Example 2: 100 μl i.p. daily day 0-50, followed until day 70.

As to mannide mono-oleate [MMO], in data set [1], the “toxicity when injected into humans” value is “non-toxic when injected into humans”. Further, the “effect on disease development” value in data set [2] (Example 3: 100 μl i.p. daily from day 0, FIG. 3) was “completely abrogated disease development”. In addition, the “mean maximal clinical score on day 40” value in data set [2] (Example 3: i.p. daily day 0-25, 15 days after injections stopped, control 2.6±0.99) is 0.17±0.11. Also, the “mean maximal clinical score on day 73” value in data set [2] (Example 3: i.p. daily day 0-25, 48 days after injections stopped, control 3.2±0.75) is on record as 0.67±0.44. Moreover, in data set [2] (Example 3: i.p. daily day 0-25, from day 25 on), the “mice in which very mild clinical signs appeared after treatment was discontinued” value is given as 3 out of the 6. Further, the “clinical signs on day 20” value in data set [2] (Example 3: i.p. daily from day 0, all 6 treated mice, control score 3.4±0.69) is given as “free of any clinical sign of EAE”. Moreover, the “mean clinical score on day 22” value in data set [2] was 0.08±0.08. In data set [3] (100 μl s.c. daily from day 4, FIG. 6), the “disease development” value is recorded as “almost complete abrogation of disease development”. Also, in data set [3], the “clinical severity” value is “markedly reduced clinical severity”.

As to `CCCCCCCC/C=C\CCCCCCCC(=O)OCC` [EOA, ethyl oleate], the “toxicity when injected into humans” value in data set [1] was “non-toxic when injected into humans”. The “mice that developed EAE (incidence)” value in data set [2] (Example 1: EOA 100 μl s.c. daily day 0-11, then days 13, 15, 17, 20, 23, 26, untreated control 5 out of 5) was 2 out of the 5. In addition, the “mean maximal severity (clinical score 0-5)” value in data set [2] (Example 1: EOA 100 μl s.c. from day 0, control 1.67±0.29) came to 0.5±0.32. Besides, in data set [2] (Example 1: s.c. from day 0, FIG. 1), the “effect on clinical severity and incidence of EAE” value was “significantly reduced clinical severity and incidence of EAE”. In data set [2] (setting [4]), the “mean maximal clinical score (0-5)” value was 0.63±0.28 and the “mice that developed EAE (incidence)” value is reported as 5 out of 8. In data set [2] (Example 2: i.p. daily day 0-50, treatment stopped day 50), the “time mice remained stable after cessation of treatment” value amounted to 20 days. In data set [2] (Example 4: 100 μl i.p. daily from day 12 (clinical onset) to day 35, control 3.5±0.69), the “maximal mean score at which disease progression was arrested” value came out at 0.83±0.53. Moreover, the “mean maximal clinical score, partially recovered subgroups (EOA-P, IFA-P)” value in data set [2] (Example 4: daily i.p. treatment reinstated from day 40 for 40 days, FIG. 4C, untreated control 3.1±0.7) is listed as 1.3±0.19. Moreover, the “therapeutic effect on ongoing EAE” value in data set [2] (Example 4: i.p. daily day 12-35, FIG. 4A) was “immediately arrested the worsening of the clinical symptoms of EAE”. For the same compound, the “state on day 40 after withholding treatment” value in data set [2] (Example 4: i.p. daily day 12-35, then no treatment) is “remained stable with no evidence of disease exacerbation or development of relapses”. Further, in data set [2] (Example 4: i.p. daily from day 12), the “time to complete reversal of clinical symptoms after treatment was initiated” value is 8 to 10 days. Moreover, the “mean maximal clinical score on days 20-21” value in data set [2] (Example 4: i.p. daily from day 12, control 3.5±0.69) worked out at 0.17±0.11. For the same compound, the “effect of second course of treatment on clinical signs” value in data set [2] (Example 4: partially recovered subgroups, daily i.p. from day 40) is “no further ameliorating effect”. Besides, the “mean clinical score on day 22” value in data set [2] was 0.83±0.40. Further, the “clinical severity” value in data set [3] is “markedly reduced clinical severity”.
